The GI50 is the concentration at which growth is held to half of that of the control.

In the Kinase Knowledgebase extract (Sharma et al. 2016) one finds GI50 data, which are given here for 15 compounds.

Each structure is given as a SMILES string.

Experiment [1] deals with EGFR (human), P00533 [delE746-A750]. The following applies: hcc827.
In experiment [2] the test system is EGFR (Human), P00533 [T790M/L858R]. The settings on record: h1975.
EGFR (Human), P00533 [T790M/L858R], sequence (P00533 whole entry T790M/L858R, looked up): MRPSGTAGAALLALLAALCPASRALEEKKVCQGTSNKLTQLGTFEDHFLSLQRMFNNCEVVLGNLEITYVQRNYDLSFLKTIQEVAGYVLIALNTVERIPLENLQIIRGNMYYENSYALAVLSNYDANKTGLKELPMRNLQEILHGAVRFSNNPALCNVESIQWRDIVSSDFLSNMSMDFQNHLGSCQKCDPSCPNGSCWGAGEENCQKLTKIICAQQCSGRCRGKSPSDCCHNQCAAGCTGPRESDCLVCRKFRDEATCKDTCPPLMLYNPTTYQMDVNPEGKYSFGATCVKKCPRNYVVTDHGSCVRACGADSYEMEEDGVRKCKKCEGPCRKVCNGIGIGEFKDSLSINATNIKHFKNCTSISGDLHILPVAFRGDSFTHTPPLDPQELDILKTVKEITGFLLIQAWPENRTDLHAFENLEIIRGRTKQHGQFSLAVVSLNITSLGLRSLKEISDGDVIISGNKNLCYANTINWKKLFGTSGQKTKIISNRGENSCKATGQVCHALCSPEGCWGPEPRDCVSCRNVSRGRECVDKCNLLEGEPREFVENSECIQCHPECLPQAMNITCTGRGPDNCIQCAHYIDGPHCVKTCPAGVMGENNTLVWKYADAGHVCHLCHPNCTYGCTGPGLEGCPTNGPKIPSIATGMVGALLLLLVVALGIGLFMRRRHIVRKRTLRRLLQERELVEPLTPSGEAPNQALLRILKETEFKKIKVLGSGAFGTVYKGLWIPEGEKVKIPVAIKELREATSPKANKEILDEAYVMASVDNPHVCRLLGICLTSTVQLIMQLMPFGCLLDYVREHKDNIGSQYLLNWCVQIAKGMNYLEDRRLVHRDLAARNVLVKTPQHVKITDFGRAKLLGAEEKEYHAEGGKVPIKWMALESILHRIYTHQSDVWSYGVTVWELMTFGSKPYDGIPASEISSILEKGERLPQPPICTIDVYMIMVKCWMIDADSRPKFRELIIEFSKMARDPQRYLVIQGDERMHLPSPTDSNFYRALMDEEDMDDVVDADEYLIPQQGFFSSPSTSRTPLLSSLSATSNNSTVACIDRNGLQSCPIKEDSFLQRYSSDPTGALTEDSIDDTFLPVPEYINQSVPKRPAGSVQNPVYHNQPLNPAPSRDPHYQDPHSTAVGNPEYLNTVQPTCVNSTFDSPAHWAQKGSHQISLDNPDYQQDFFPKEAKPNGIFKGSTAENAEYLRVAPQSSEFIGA

EGFR (human), P00533 [delE746-A750], sequence (P00533 whole entry, looked up, stated change not applied): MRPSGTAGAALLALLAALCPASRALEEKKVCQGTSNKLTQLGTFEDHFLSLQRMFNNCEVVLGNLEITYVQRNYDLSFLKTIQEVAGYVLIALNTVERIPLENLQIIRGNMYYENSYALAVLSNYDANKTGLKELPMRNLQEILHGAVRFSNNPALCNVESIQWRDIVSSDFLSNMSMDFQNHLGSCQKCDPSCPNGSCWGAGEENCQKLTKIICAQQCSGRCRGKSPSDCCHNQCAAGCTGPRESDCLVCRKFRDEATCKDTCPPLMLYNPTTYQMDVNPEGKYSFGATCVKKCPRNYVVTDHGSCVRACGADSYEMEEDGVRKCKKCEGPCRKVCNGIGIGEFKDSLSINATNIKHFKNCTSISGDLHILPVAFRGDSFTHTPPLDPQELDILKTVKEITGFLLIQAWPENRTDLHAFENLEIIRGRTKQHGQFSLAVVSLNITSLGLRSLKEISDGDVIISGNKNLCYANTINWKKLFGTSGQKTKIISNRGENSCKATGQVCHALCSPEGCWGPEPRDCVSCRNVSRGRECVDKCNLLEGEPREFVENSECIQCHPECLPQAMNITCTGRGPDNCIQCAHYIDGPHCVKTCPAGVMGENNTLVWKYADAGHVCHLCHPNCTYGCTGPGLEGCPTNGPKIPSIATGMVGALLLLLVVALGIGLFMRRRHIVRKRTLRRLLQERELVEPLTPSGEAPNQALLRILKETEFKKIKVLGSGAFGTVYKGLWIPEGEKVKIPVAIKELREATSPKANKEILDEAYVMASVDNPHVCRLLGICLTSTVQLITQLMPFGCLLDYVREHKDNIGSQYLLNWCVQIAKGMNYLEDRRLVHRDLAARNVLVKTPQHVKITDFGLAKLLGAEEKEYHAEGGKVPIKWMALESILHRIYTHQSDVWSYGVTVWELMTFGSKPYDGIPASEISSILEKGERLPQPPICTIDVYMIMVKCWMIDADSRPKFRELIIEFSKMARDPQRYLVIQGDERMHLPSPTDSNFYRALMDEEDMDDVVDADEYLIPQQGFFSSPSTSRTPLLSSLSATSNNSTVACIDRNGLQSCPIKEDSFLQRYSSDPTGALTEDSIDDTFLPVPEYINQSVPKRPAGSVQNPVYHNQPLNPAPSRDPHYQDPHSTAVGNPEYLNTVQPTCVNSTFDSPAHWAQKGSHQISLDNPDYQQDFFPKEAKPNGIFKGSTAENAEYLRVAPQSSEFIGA

As for `C=CC(=O)Nc1cccc(Nc2nc(Nc3ccccc3OC)ncc2Cl)c1`, the concentration for 50% growth inhibition (GI50) in experiment [1] lay within 500 to 1000 nM.
In experiment [1], `C=CC(=O)Nc1cccc(Nc2nc(Nc3ccc(OC)cc3OC)ncc2Br)c1` showed a GI50 of 100 to 500 nM.
In turn, `C=CC(=O)Nc1cccc(Oc2nc(Nc3ccccc3OC)ncc2F)c1` yielded a GI50 in experiment [1] of 100 to 500 nM.
Consider `C=CC(=O)Nc1cccc(Nc2nc(Nc3ccccc3OC)ncc2C(F)(F)F)c1`, for which the GI50 was in the range of 100 to 500 nM in experiment [2] and 10 to 100 nM in experiment [1].
Turning to `C=CC(=O)Nc1cccc(Nc2nc(Nc3ccc(OC)cc3OC)ncc2Cl)c1`, in experiment [1], the GI50 was in the range of 500 to 1000 nM.
For the compound `C=CC(=O)Nc1cccc(Oc2nc(Nc3ccc(OC)cc3OC)ncc2Br)c1`, in experiment [2], the GI50 lay within 500 to 1000 nM.
`C=CC(=O)Nc1cccc(Nc2nc(Nc3ccc(OC)c(OC)c3OC)ncc2Br)c1`: the GI50 in experiment [1] is 100 to 500 nM.
With `C=CC(=O)Nc1cccc(Oc2nc(Nc3ccc(OC)cc3OC)ncc2C(F)(F)F)c1`, the GI50 in experiment [2] and in experiment [1] was 100 to 500 nM in each case.
As to `C=CC(=O)Nc1cccc(Oc2nc(Nc3ccc(OC)c(OC)c3OC)ncc2C(F)(F)F)c1`, the concentration for 50% growth inhibition (GI50) in experiment [2] and in experiment [1] was 100 to 500 nM in each case.
On to `C=CC(=O)Nc1cccc(Nc2nc(Nc3ccccc3OC)ncc2Br)c1`, for which the GI50 in experiment [2] and in experiment [1] was 500 to 1000 nM throughout.
In experiment [1], `C=CC(=O)Nc1cccc(Oc2nc(Nc3ccccc3OC)ncc2C(F)(F)F)c1` yielded a GI50 of 100 to 500 nM.
Turning to `C=CC(=O)Nc1cccc(Nc2nc(Nc3cccc(OC)c3OC)ncc2C(F)(F)F)c1`, the GI50 in experiment [1] was 500 to 1000 nM.
As for `C=CC(=O)Nc1cccc(Oc2nc(Nc3ccc(OC)c(OC)c3OC)ncc2Cl)c1`, the GI50 in experiment [2] and in experiment [1] was 100 to 500 nM in each case.
Consider `C=CC(=O)Nc1cccc(Nc2nc(Nc3ccc(OC)c(OC)c3OC)ncc2C(F)(F)F)c1`, for which the results for the GI50 in experiment [2] and in experiment [1] were 100 to 500 nM and 10 to 100 nM, respectively.
On to `C=CC(=O)Nc1cccc(Oc2nc(Nc3cccc(OC)c3OC)ncc2Br)c1`, for which the GI50 in experiment [2] and in experiment [1] was 500 to 1000 nM each time.
